Laboratory results from patent US11986493B2 (University of Pittsburgh—Of the Commonwealth System of …, priority 2013, dated 2024).

Tested on: subjects with pulmonary hypertension (WHO group I PAH, WHO group III PH)
Test: Right heart catheterization: right heart/pulmonary artery hemodynamics, thermodilution cardiac output, PVR and SVR after inhaled NO and nebulized nitrite
Assay type: in vivo, human
Protocol: A total of 6 subjects with a confirmed diagnosis of pulmonary hypertension and meeting all inclusion/exclusion criteria were enrolled in the study which entailed a single right heart catheterization. The study population consisted of subjects with WHO group I PAH (n=3) and subjects with WHO group III PH (n=3) which received the dose escalation paradigm:
During the study right heart/pulmonary artery hemodynamics were measured as well as noninvasive systemic blood pressure monitoring and simultaneous RV echocardiography. Subjects were tested for the changes in pulmonary vascular resistance (PVR) measured by right heart catheterization and using thermodilution cardiac output measurement at time zero, at times 15, 30 and 45 minutes after completion of each nebulization dose.
Following right heart catheterization, the patient was stabilized for 20 minutes. Baseline blood collections and hemodynamic measurements were performed, followed by treatment with 40 ppm inhaled NO gas for […] with repeat hemodynamic measurements performed.
After stopping inhaled NO gas, a single dose of sildenafil was given if patients were on background sildenafil therapy at previously prescribed doses. 45-minutes after sildenafil dose baseline hemodynamics were performed.
Subjects were monitored carefully during and after the study treatment.
The study was conducted at the 3rd FL Catheterization Laboratory at Presbyterian Hospital of the University of Pittsburgh Medical Center (UPMC). Baseline vasoreactivity was recorded after Inhaled NO at 40 ppm for […]. […] Subjects were instructed to breathe as calmly, and deeply as possible until no more mist was formed in the nebulizer chamber. Subjects were also instructed to hold their breath for approximately 10 seconds after inhalation to allow the study drug to reach deep into the lungs.

[1] = Patient 4, nitrite 45 mg inhaled, 15 min
[2] = Patient 4, nitrite 45 mg inhaled, 30 min
[3] = Patient 4, nitrite 45 mg inhaled, 45 min
[4] = Patient 4, nitrite 45 mg inhaled, 60 min
[5] = Patient 4, nitrite 90 mg inhaled, 15 min
[6] = Patient 4, nitrite 90 mg inhaled, 30 min
[7] = Patient 4, nitrite 90 mg inhaled, 45 min
[8] = Patient 4, nitrite 90 mg inhaled, 60 min
[9] = Patient 5, nitrite 45 mg inhaled, 15 min
[10] = Patient 5, nitrite 45 mg inhaled, 30 min
[11] = Patient 5, nitrite 45 mg inhaled, 45 min
[12] = Patient 5, nitrite 45 mg inhaled, 60 min

`O=NO` [nitrite, sodium nitrite] was tested, and the mPAP (Patient 3, nitrite 90 mg inhaled, 60 min) was 37.34, the CI [1] was 3.07 and the CO [1] was 5.37. The PAD [1] was 26, the PAS [1] was 69 and the PCWP [1] was 7. It also gave a PVR [1] of 6.21, a PVR/SVR [1] of 0.36 and an RA [1] of 3. For the same compound, the RVD [1] was 3, the RVS [1] was 74 and the SVR [1] was 17.01. It also gave a TPR [1] of 7.51, a mPAP [1] of 40.34 and a CI [2] of 2.69. The CO [2] was 4.7, the PAD [2] was 24 and the PAS [2] was 70. The PCWP [2] was 8, the PVR [2] was 6.67 and the PVR/SVR [2] was 0.34. It also gave an RA [2] of 4, an RVD [2] of 3 and an RVS [2] of 67. For the same compound, the SVR [2] was 19.58, the TPR [2] was 8.37 and the mPAP [2] was 39.34. For the same compound, the CI [3] was 2.71, the CO [3] was 4.75 and the PAD [3] was 23. The PAS [3] was 68, the PCWP [3] was 9 and the PVR [3] was 6.11. It also gave a PVR/SVR [3] of 0.32, an RA [3] of 2 and an RVD [3] of 2. It also gave an RVS [3] of 68, an SVR [3] of 18.95 and a TPR [3] of 8.00. The mPAP [3] was 38.01, the CI [4] was 3.03 and the CO [4] was 5.31. It also gave a PAD [4] of 21, a PAS [4] of 69 and a PCWP [4] of 8. The PVR [4] was 5.46, the PVR/SVR [4] was 0.33 and the RA [4] was 3. For the same compound, the RVD [4] was 2, the RVS [4] was 68 and the SVR [4] was 16.57. It also gave a TPR [4] of 6.97, a mPAP [4] of 37.01 and a CI [5] of 3.08. For the same compound, the CO [5] was 5.39, the PAD [5] was 23 and the PAS [5] was 71. The PCWP [5] was 8, the PVR [5] was 5.75 and the PVR/SVR [5] was 0.39. It also gave an RA [5] of 3, an RVD [5] of 3 and an RVS [5] of 62. For the same compound, the SVR [5] was 14.78, the TPR [5] was 7.24 and the mPAP [5] was 39.01. The CI [6] was 3.03, the CO [6] was 5.3 and the PAD [6] was 22. For the same compound, the PAS [6] was 70, the PCWP [6] was 7 and the PVR [6] was 5.85. For the same compound, the PVR/SVR [6] was 0.37, the RA [6] was 4 and the RVD [6] was 3. The RVS [6] was 70, the SVR [6] was 15.73 and the TPR [6] was 7.17. It also gave a mPAP [6] of 38.01, a CI [7] of 3.08 and a CO [7] of 5.39. For the same compound, the PAD [7] was 23, the PAS [7] was 69 and the PCWP [7] was 7. It also gave a PVR [7] of 5.81, a PVR/SVR [7] of 0.39 and an RA [7] of 2. For the same compound, the RVD [7] was 2, the RVS [7] was 74 and the SVR [7] was 14.91. It also gave a TPR [7] of 7.11, a mPAP [7] of 38.34 and a CI [8] of 3.03. For the same compound, the CO [8] was 5.3, the PAD [8] was 21 and the PAS [8] was 67. For the same compound, the PCWP [8] was 8, the PVR [8] was 5.35 and the PVR/SVR [8] was 0.33. It also gave an RA [8] of 2, an RVD [8] of 3 and an RVS [8] of 70. For the same compound, the SVR [8] was 16.04, the TPR [8] was 6.86 and the mPAP [8] was 36.34. It also gave a CI [9] of 2.80, a CO [9] of 4.95 and a PAD [9] of 16. The PAS [9] was 66, the PCWP [9] was 3 and the PVR [9] was 5.99. It also gave a PVR/SVR [9] of 0.48, an RA [9] of 1 and an RVD [9] of 1. For the same compound, the RVS [9] was 68, the SVR [9] was 12.53 and the TPR [9] was 6.60. For the same compound, the mPAP [9] was 32.67, the CI [10] was 2.50 and the CO [10] was 4.43. It also gave a PAD [10] of 15, a PAS [10] of 66 and a PCWP [10] of 3. It also gave a PVR [10] of 6.55, a PVR/SVR [10] of 0.44 and an RA [10] of 1. The SVR [10] was 14.75, the TPR [10] was 7.22 and the mPAP [10] was 32.00. The CI [11] was 2.75, the CO [11] was 4.86 and the PA sat [11] was 60. The PAD [11] was 14, the PAS [11] was 67 and the PCWP [11] was 4. The PVR [11] was 5.69, the PVR/SVR [11] was 0.42 and the RA [11] was 1. It also gave an SVR [11] of 13.65, a TPR [11] of 6.52 and a mPAP [11] of 31.67. It also gave a CI [12] of 2.52, a CO [12] of 4.46 and a PAD [12] of 17. The PAS [12] was 74.
